Activity calls are given as the source filed them. The calls are words filed in the database; no cut-off is given here.
How the values were obtained:
SH-SY5Y [1] = experiment: Neuroprotective activity in human SH-SY5Y cells assessed as protection against H2O2-induced oxidative stress at 10 uM incubated for 1 hr prior to H2O2-challenge measured after 12 hrs by MTT assay; assay type: functional
SH-SY5Y [2] = experiment: Neuroprotective activity in human SH-SY5Y cells assessed as protection against H2O2-induced oxidative stress at 30 uM incubated for 1 hr prior to H2O2-challenge measured after 12 hrs by MTT assay; assay type: functional
SH-SY5Y [3] = experiment: Neuroprotective activity in human SH-SY5Y cells assessed as protection against H2O2-induced oxidative stress incubated for 1 hr prior to H2O2-challenge measured after 12 hrs by MTT assay; assay type: functional, cell-based
Acetylcholinesterase = Acetylcholinesterase (Electrophorus electricus, UniProt O42275); experiment: Inhibition of electric eel acetylcholine esterase using […] as substrate incubated for 5 mins prior to substrate addition measured every 3 mins by Ellman's assay
[4] = target: Acetylcholinesterase (Electrophorus electricus) (UniProt O42275); experiment: Time dependent inhibition of electric eel acetylcholine esterase using […] as substrate incubated for 5 mins prior to substrate addition measured for 2 to 40 mins by Ellman's assay
[5] = target: Acetylcholinesterase (Electrophorus electricus) (UniProt O42275); experiment: Mixed type inhibition of electric eel acetylcholine esterase using […] as substrate by Lineweaver-Burk reciprocal plot analysis
SH-SY5Y [6] = experiment: Neuroprotective activity in human SH-SY5Y cells assessed as protection against H2O2-induced oxidative stress at 1 uM incubated for 1 hr prior to H2O2-challenge measured after 12 hrs by MTT assay; assay type: functional
SH-SY5Y [7] = experiment: Neuroprotective activity in human SH-SY5Y cells assessed as protection against H2O2-induced oxidative stress at 3 uM incubated for 1 hr prior to H2O2-challenge measured after 12 hrs by MTT assay; assay type: functional
Cholinesterase = Cholinesterase (Equus caballus, UniProt P81908)
Description: Inhibition of equine serum butyrylcholine esterase using butyrylcholine chloride as substrate incubated for 5 mins prior to substrate addition measured every 3 mins by Ellman's assay

Hippocampus [8] = experiment: (§1) Neuroprotective activity in Sprague-Dawley rat hippocampal CA1 region assessed as enhancement of high frequency stimulation-induced long-term potentiation by measuring field excitatory postsynaptic potentials at 50 uM incubated for 5 mins prior to HFS-induction measured after 10 mins by electrophysiology assay (reference value: 134.3 +/- 3.9%); assay type: functional
Rattus norvegicus [9] = experiment: Neuroprotective activity in Sprague-Dawley rat assessed as enhancement of high frequency stimulation-induced long-term potentiation in hippocampus at 50 uM, icv after 3 hrs (reference value: 126 +/- 3.6%); assay type: functional
Rattus norvegicus [10] = experiment: Hepatotoxicity in Sprague-Dawley rat assessed increase in aminotransferase level in serum at 6 umol/100g of body weight, ip up to 120 hrs; assay type: toxicity, organism-based; conditions: in vivo
Rattus norvegicus [11] = experiment: Hepatotoxicity in Sprague-Dawley rat assessed increase in alanine aminotransferase level in serum at 6 umol/100g of body weight, ip up to 120 hrs; assay type: toxicity, organism-based; conditions: in vivo
Hippocampus [12] = experiment: as §1, with “133.7” for “134.3”, “3.6%)” for “3.9%)”; assay type: functional
Hippocampus [13] = experiment: as §1, with “potentials” for “potentials at 50 uM”, “136.3” for “134.3”, “5.3%)” for “3.9%)”; assay type: functional

Cholinesterase, sequence (P81908 whole entry): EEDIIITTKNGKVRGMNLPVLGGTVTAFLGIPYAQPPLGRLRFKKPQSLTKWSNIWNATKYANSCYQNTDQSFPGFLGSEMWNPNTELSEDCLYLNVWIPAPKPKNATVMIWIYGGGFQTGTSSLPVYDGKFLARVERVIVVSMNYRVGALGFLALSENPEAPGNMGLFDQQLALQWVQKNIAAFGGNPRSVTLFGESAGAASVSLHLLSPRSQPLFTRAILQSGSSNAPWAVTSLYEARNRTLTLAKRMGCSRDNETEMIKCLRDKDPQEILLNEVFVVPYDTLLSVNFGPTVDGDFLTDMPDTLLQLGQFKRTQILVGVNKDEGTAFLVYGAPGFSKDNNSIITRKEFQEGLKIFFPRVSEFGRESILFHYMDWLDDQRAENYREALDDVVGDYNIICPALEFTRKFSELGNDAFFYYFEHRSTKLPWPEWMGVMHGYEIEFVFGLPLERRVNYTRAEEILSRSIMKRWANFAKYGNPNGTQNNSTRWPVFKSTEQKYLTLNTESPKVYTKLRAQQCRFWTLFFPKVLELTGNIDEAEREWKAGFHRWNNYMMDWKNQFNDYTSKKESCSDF
Acetylcholinesterase, sequence (O42275 whole entry): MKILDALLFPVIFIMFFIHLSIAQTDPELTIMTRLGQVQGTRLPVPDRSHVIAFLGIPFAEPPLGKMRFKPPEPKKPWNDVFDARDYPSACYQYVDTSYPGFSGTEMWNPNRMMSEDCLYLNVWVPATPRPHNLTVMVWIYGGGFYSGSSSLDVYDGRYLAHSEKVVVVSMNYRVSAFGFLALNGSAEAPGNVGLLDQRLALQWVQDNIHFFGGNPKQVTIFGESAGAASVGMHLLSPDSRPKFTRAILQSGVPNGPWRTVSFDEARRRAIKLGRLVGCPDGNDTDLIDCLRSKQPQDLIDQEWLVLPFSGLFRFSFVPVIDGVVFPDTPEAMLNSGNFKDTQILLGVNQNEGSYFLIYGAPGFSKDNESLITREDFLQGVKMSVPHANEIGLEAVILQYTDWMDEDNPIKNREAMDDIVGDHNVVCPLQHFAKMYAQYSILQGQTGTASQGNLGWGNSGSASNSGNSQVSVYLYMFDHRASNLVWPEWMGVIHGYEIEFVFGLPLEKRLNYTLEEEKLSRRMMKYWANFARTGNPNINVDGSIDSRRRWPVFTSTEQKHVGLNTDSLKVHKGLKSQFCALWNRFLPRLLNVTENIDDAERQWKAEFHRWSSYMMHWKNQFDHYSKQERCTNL
Acetylcholinesterase (Electrophorus electricus), sequence (O42275 24-633 limits assumed): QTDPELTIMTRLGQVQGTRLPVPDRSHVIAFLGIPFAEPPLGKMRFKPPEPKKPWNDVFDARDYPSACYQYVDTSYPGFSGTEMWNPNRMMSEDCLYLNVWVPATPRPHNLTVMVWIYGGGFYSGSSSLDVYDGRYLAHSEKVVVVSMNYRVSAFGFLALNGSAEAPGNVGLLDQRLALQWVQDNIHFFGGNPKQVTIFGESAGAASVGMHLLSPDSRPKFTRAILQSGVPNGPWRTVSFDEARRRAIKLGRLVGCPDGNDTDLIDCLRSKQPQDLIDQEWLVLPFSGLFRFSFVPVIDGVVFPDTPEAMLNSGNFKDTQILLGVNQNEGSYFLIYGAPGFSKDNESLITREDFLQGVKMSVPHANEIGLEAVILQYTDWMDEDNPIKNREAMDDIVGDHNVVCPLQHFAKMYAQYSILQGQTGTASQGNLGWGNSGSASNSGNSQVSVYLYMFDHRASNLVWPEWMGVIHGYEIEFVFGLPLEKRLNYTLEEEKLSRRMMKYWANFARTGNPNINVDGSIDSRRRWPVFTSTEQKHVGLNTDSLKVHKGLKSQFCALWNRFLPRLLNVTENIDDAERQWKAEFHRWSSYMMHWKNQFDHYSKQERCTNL

| SMILES | Activity (SH-SY5Y [1]) [%] | Activity (SH-SY5Y [2]) [%] | Activity (SH-SY5Y [3]) | IC50 (Acetylcholinesterase) [µM] | inhibition [4] | inhibition [5] | Activity (SH-SY5Y [6]) [%] | Activity (SH-SY5Y [7]) [%] | IC50 (Cholinesterase) [nM] | Activity (Hippocampus [8]) [%] | Activity (Rattus norvegicus [9]) [%] | Activity (Rattus norvegicus [10]) | Activity (Rattus norvegicus [11]) | Activity (Hippocampus [12]) [%] | Activity (Hippocampus [13]) [%] |
| --- | --- | --- | --- | --- | --- | --- | --- | --- | --- | --- | --- | --- | --- | --- | --- |
| CC(=O)SCCC(=O)NCCCCCCNc1c2c(nc3cc(Cl)ccc13)CCCC2 | 28.5 | 34 | Dose-dependent effect | 0.0427 | inactive | Active | 8.1 | 17.1 | 91.2 |  |  |  |  |  |  |
| Cc1c(C)c2c(c(C)c1O)CCC(C)(C(=O)O)O2 (stereo unspecified) [TROLOX] | 44.2 | 59.1 |  |  |  |  |  |  |  |  |  |  |  |  |  |
| O=C(CCS)NCCCCCCNc1c2c(nc3cc(Cl)ccc13)CCCC2 | 24.5 | 37.8 |  | 0.178 |  |  | 52.3 | 27.2 | 178 | 157.1 | 149 |  |  |  |  |
| CC(=O)SCCC(=O)NCCCCNc1c2c(nc3ccccc13)CCCC2 | 43.6 | 56.5 | Dose-dependent effect | 7.24 |  |  | 21.7 | 30.1 | 155 |  |  |  |  |  |  |
| O=C(CCS)NCCCCNc1c2c(nc3ccccc13)CCCC2 | 21.5 | 38.2 |  | 8.32 |  |  | 23.8 | 5.8 | 129 |  |  |  |  |  |  |
| O=C(CCS)NCCCNc1c2c(nc3ccccc13)CCCC2 | 16.7 | 34 |  | 6.03 |  |  | 45.9 | 22 | 182 |  |  | Non-toxic | Non-toxic | 160.8 |  |
| CC(=O)SCCC(=O)NCCCNc1c2c(nc3ccccc13)CCCC2 | 38.2 | 50.6 | Dose-dependent effect | 1.74 |  |  | 32.4 | 35.9 | 229 |  |  | Non-toxic | Non-toxic |  | 136.2 |

Source: ChEMBL document CHEMBL2034917, “Multifunctional mercapto-tacrine derivatives for treatment of age-related neurodegenerative diseases” (J Med Chem, 2012)
